In patent US20090069370A1, “AZACYCLYLISOQUINOLINONE AND ISOINDOLINONE DERIVATIVES AS HISTAMINE-3 ANTAGONISTS” (Wyeth, priority 2007, published 2009) one finds Ki data, which are given here for 26 compounds.

Each structure is given as a SMILES string. pKi: −log10 of the molar value. Counter-ions that a name gives are not always drawn. A value given as a limit tells only on which side of the number the result lay.

The target of this experiment is T1, Human Histamine H3 Receptor (Homo sapiens, UniProt Q9Y5N1).
T1 construct: expressed in transfected cells; host or cells: HEK293T cells, stably transfected; membrane preparation
T1 sequence (Q9Y5N1 whole entry): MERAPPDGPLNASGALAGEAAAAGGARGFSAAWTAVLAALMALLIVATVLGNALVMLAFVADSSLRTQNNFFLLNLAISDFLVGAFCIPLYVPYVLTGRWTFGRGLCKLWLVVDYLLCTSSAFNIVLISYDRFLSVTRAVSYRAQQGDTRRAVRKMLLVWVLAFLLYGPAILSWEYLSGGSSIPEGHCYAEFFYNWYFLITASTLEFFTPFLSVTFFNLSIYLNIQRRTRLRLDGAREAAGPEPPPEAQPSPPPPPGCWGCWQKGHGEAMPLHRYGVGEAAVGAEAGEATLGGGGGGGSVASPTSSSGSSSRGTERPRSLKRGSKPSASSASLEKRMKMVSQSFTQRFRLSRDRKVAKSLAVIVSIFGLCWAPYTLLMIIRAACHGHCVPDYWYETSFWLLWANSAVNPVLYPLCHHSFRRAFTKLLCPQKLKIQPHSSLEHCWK
Briefly: Methyl histamine binding in human histamine H3 receptor cell line. As to conditions: membranes of stably transfected HEK293T cells; radioligand 1 nM; Ki from IC50 by Cheng-Prusoff. As to the method: Evaluation of Methyl Histamine Binding in Human Histamine H3 Receptor Cell Line
The affinity of test compounds for the histamine 3 (H3) receptor is evaluated in the following manner. Stably transfected HEK293T cells are grown in DMEM containing 10% heat inactivated FBS and G-418 (500 ug/ml). Cells are scraped from the plate, transferred to centrifuge tubes, washed one time in PBS by centrifugation in a Sorvall RT7 Plus centrifuge (2000 rpm 10 minutes, 4° C.). The resulting pellets are stored at −80° C. until ready for use. Cells are re-suspended in buffer (50 mM Tris pH=7.5) and placed in a Dounce homogenizer, douncing ten times to homogenize cells. The homogenate is spun down by centrifugation (Sorvall RT7 Plus, 1800 rpm 10 minutes, 4° C.). The supernatant is placed in a Corex tube and spun down by centrifugation (Sorvall RC 5c Plus, 17,000 rpm 20 minutes, 4° C.). The pellet is resuspended in buffer (50 mM Tris, pH 7.5). Protein concentration (ug/ul) is determined using the Micro-BCA Protein Determination. The binding assay is set up in a 96 well microtiter plate in a total volume of 250 uL. Non-specific binding is determined in the presence of 10 uM clobenpropit. The final radioligand concentration is 1 nM. The test compound is serially diluted using the Beckman Biomek2000 to a final approximate range of 100 uM to 100 pM. Membranes are suspended in buffer, homogenized in 2 bursts of ten seconds using a Vitris mechanical homogenizer set at power setting 5. Ten μg of membranes are added to each well. Following a one hour incubation at 30° C., the reaction is terminated by the addition of ice cold buffer and rapid filtration with a Packard Filtermate Harvester through a GF/B filter pre-soaked with 1% PEI for one hour. The plate is dried for one hour at 37° C. and 60 μL Microscint Scintillant is added to each well. The CPM per well is measured on a Packard Top Count NXT. Ki values are determined in nM. The Ki is calculated from the IC50 (i.e. the concentration of competing ligand which displaces 50% of the specific binding of the radioligand). CPM values are expressed as % specific binding and plotted vs compound concentration. A curve is fitted using a four-parameter logistic fit and the IC50 value is determined. The Ki is calculated from this using the Cheng-Prusoff equation: […]=IC50/1+(L/Kd) where L=concentration of free radioligand used in the assay, and Kd is the dissociation constant of the radioligand for the receptor. L is determined for each experiment by counting an aliquot of the diluted radioligand (corresponding to that added to each well) and the Kd has previously been determined under identical conditions for this cell line/radioligand.
Compound `CNC(=O)c1ccc(-c2ccc3c(c2)CCN(C2CCN(C4CCC4)C2)C3=O)cc1` (stereo in doubt) [Example 90, (R)-4-(2-(1-cyclobutylpyrrolidin-3-yl)-1-oxo-1,2,3,4-tetrahydro-isoquinolin-6-yl)-N-methylbenzamide hydrochloride] had a pKi of at least 8.00.

Consider `COC(=O)c1ccc(Oc2ccc3c(c2)CCN(C2CCN(C4CCC4)CC2)C3=O)cc1` [Example 1, methyl 4-{[2-(1-Cyclobutylpiperidin-4-yl)-1-oxo-1,2,3,4-tetrahydroisoquinolin-6-yl]oxy}benzoate], for which the negative logarithm of the Ki (pKi) is 7.00 to 7.30. The compound `NC(=O)c1ccc(Oc2ccc3c(c2)CCN(C2CCN(C4CCC4)CC2)C3=O)cc1` [Example 3, 4-{[2-(1-cyclobutylpiperidin-4-yl)-1-oxo-1,2,3,4-tetrahydroiso-quinolin-6-yl]oxy}benzamide Hydrochloride] gave a negative logarithm of the Ki (pKi) of 7.60 to 8.00. For `CNC(=O)c1ccc(Oc2ccc3c(c2)CCN(C2CCN(C4CCC4)CC2)C3=O)cc1` [Example 4, 4-{[2-(1-Cyclobutylpiperidin-4-yl)-1-oxo-1,2,3,4-tetrahydroisoquinolin-6-yl]oxy}-N-methylbenzamide] the value was at least 8.00; for `CCNC(=O)c1ccc(Oc2ccc3c(c2)CCN(C2CCN(C4CCC4)CC2)C3=O)cc1` [Example 5, 4-{[2-(1-Cyclobutylpiperidin-4-yl)-1-oxo-1,2,3,4-tetrahydroisoquinolin-6-yl]oxy}-N-ethylbenzamide], at least 8.00; for `CC(C)NC(=O)c1ccc(Oc2ccc3c(c2)CCN(C2CCN(C4CCC4)CC2)C3=O)cc1` [Example 6, 4-{[2-(1-Cyclobutylpiperidin-4-yl)-1-oxo-1,2,3,4-tetrahydroisoquinolin-6-yl]oxy}-N-isopropylbenzamide], 7.60 to 8.00. For `O=C(NC1CC1)c1ccc(Oc2ccc3c(c2)CCN(C2CCN(C4CCC4)CC2)C3=O)cc1` [Example 7, 4-{[2-(1-Cyclobutylpiperidin-4-yl)-1-oxo-1,2,3,4-tetrahydroisoquinolin-6-yl]oxy}-N-cyclopropylbenzamide] the value was at least 8.00; for `O=C(NC1CCC1)c1ccc(Oc2ccc3c(c2)CCN(C2CCN(C4CCC4)CC2)C3=O)cc1` [Example 8, N-Cyclobutyl-4-{[2-(1-cyclobutylpiperidin-4-yl)-1-oxo-1,2,3,4-tetrahydroisoquinolin-6-yl]oxy}benzamide], at least 8.00; for `O=C(NC1CCCC1)c1ccc(Oc2ccc3c(c2)CCN(C2CCN(C4CCC4)CC2)C3=O)cc1` [Example 9, 4-{[2-(1-Cyclobutylpiperidin-4-yl)-1-oxo-1,2,3,4-tetrahydroisoquinolin-6-yl]oxy}-N-cyclopentylbenzamide], 7.60 to 8.00.

In turn, `CN(C)C(=O)c1ccc(Oc2ccc3c(c2)CCN(C2CCN(C4CCC4)CC2)C3=O)cc1` [Example 10, 4-{[2-(1-Cyclobutylpiperidin-4-yl)-1-oxo-1,2,3,4-tetrahydroisoquinolin-6-yl]oxy}-N,N-dimethylbenzamide] gave a negative-log Ki (pKi) of 7.60 to 8.00. For the compound `CCN(CC)C(=O)c1ccc(Oc2ccc3c(c2)CCN(C2CCN(C4CCC4)CC2)C3=O)cc1` [Example 11, 4-{[2-(1-Cyclobutylpiperidin-4-yl)-1-oxo-1,2,3,4-tetrahydroisoquinolin-6-yl]oxy}-N,N-diethylbenzamide], the negative logarithm of the Ki (pKi) was 7.30 to 7.60. For `O=C(c1ccc(Oc2ccc3c(c2)CCN(C2CCN(C4CCC4)CC2)C3=O)cc1)N1CCCC1` [Example 12, 2-(1-Cyclobutylpiperidin-4-yl)-6-[4-(pyrrolidin-1-ylcarbonyl)phenoxy]-3,4-dihydroisoquinolin-1(2H)-one] the value was at least 8.00. For `NC(=O)c1ccc(COc2ccc3c(c2)CCN(C2CCN(C4CCC4)CC2)C3=O)cc1` [Example 15, 4-({[2-(1-cyclobutylpiperidin-4-yl)-1-oxo-1,2,3,4-tetrahydroiso-quinolin-6-yl]oxy}methyl)benzamide acid hydrochloride] the value was at least 8.00. For `CNC(=O)c1ccc(COc2ccc3c(c2)CCN(C2CCN(C4CCC4)CC2)C3=O)cc1` [Example 16, 4-({[2-(1-Cyclobutylpiperidin-4-yl)-1-oxo-1,2,3,4-tetrahydroisoquinolin-6-yl]oxy}methyl)-N-methylbenzamide] the value was at least 8.00; for `CCNC(=O)c1ccc(COc2ccc3c(c2)CCN(C2CCN(C4CCC4)CC2)C3=O)cc1` [Example 17, 4-({[2-(1-Cyclobutylpiperidin-4-yl)-1-oxo-1,2,3,4-tetrahydroisoquinolin-6-yl]oxy}methyl)-N-ethylbenzamide], at least 8.00; for `CN(C)C(=O)c1ccc(COc2ccc3c(c2)CCN(C2CCN(C4CCC4)CC2)C3=O)cc1` [Example 18, 4-({[2-(1-Cyclobutylpiperidin-4-yl)-1-oxo-1,2,3,4-tetrahydroisoquinolin-6-yl]oxy}methyl)-N,N-dimethylbenzamide], at least 8.00. `O=C(NC1CCC1)c1ccc(COc2ccc3c(c2)CCN(C2CCN(C4CCC4)CC2)C3=O)cc1` [Example 19, N-Cyclobutyl-4-({[2-(1-cyclobutylpiperidin-4-yl)-1-oxo-1,2,3,4-tetrahydroisoquinolin-6-yl]oxy}methyl)benzamide] gave a pKi of at least 8.00.

In turn, `O=C(c1ccc(COc2ccc3c(c2)CCN(C2CCN(C4CCC4)CC2)C3=O)cc1)N1CCCC1` [Example 20, 2-(1-Cyclobutylpiperidin-4-yl)-6-{[4-(pyrrolidin-1-ylcarbonyl)benzyl]oxy}-3,4-dihydroisoquinolin-1(2H)-one] showed a negative-log Ki (pKi) of at least 8.00. `O=C(NC1CCCC1)c1ccc(COc2ccc3c(c2)CCN(C2CCN(C4CCC4)CC2)C3=O)cc1` [Example 21, 4-({[2-(1-Cyclobutylpiperidin-4-yl)-1-oxo-1,2,3,4-tetrahydroisoquinolin-6-yl]oxy}methyl)-N-cyclopentylbenzamide] showed a pKi of at least 8.00. On to `N#Cc1ccc(-c2ccc3c(c2)CN(C2CCNCC2)C3=O)cc1` [Example 22, 4-(1-oxo-2-piperidin-4-yl-2,3-dihydro-1H-isoindol-5-yl)benzonitrile hydrochloride], for which the pKi is below 7.00. Under `CN1CCC(N2Cc3cc(-c4ccc(C#N)cc4)ccc3C2=O)CC1` [Example 23, hydrochloride] stands below 7.00; under `CCN1CCC(N2Cc3cc(-c4ccc(C#N)cc4)ccc3C2=O)CC1` [Example 24, 4-[2-(1-Ethylpiperidin-4-yl)-1-oxo-2,3-dihydro-1H-isoindol-5-yl]benzonitrile], below 7.00. Under `CCCN1CCC(N2Cc3cc(-c4ccc(C#N)cc4)ccc3C2=O)CC1` [Example 25, 4-[1-Oxo-2-(1-propylpiperidin-4-yl)-2,3-dihydro-1H-isoindol-5-yl]benzonitrile] stands below 7.00; under `N#Cc1ccc(-c2ccc3c(c2)CN(C2CCN(CC4CC4)CC2)C3=O)cc1` [Example 26, 4-{2-[1-(Cyclopropylmethyl)piperidin-4-yl]-1-oxo-2,3-dihydro-1H-isoindol-5-yl}benzonitrile], 7.00 to 7.30; under `N#Cc1ccc(-c2ccc3c(c2)CN(C2CCN(CC4CCCC4)CC2)C3=O)cc1` [Example 27, 4-{2-[1-(Cyclopentylmethyl)piperidin-4-yl]-1-oxo-2,3-dihydro-1H-isoindol-5-yl}benzonitrile], 7.30 to 7.60. Regarding `N#Cc1ccc(-c2ccc3c(c2)CN(C2CCN(C4CCC4)CC2)C3=O)cc1` [Example 28, 4-[2-(1-Cyclobutylpiperidin-4-yl)-1-oxo-2,3-dihydro-1H-isoindol-5-yl]benzonitrile], the pKi is 7.30 to 7.60.

As usually defined, the pKi is the negative decadic logarithm of the Ki, by convention in mol/L. A lower pKi goes with a large Ki.
